From PMC10072326, “Promising anticancer agents based on 8-hydroxyquinoline hydrazone copper(II) complexes” (Frontiers in Chemistry, 2023)

Legend:
S. aureus ATCC 25928 = assay: MIC determination; assay type: cell-based, Staphylococcus aureus; details: S. aureus ATCC 25928 (sensitive); 18 h
Protocol: (§1) Wild-type Escherichia coli K-12 AG100 strain [argE3 thi-1 rpsL xyl mtl Δ(gal-uvrB) supE44] expressing the AcrAB TolC efflux pump at its basal level and Klebsiella pneumoniae ATCC 49619 Gram-negative strains were studied in the experiments. Sensitive (ATCC 25928) and the methicillin-resistant (MRSA 272123) subspecies of Staphylococcus aureus were used as Gram-positive strains in the assays.
(§2) Minimum inhibitory concentration (MIC) values of selected compounds were determined in 96-well plates based on the Clinical and Laboratory Standard Institute guidelines (CLSI guidelines). The stock solutions of the compounds were dissolved in DMSO using 1.3 μL of Mueller Hinton Broth, and then two-fold serial dilutions were performed. The starting concentration of the compounds was 100 μM. Then 10^‒4 dilution of an overnight bacterial culture in 100 μL of medium was added to each well, except for the medium control wells.

S. aureus MRSA 272123 = assay: MIC determination; assay type: cell-based, Staphylococcus aureus; details: 18 h
Protocol: as §1, §2

A-375 cells [1] = assay: Apoptosis by Annexin V/7-AAD and Caspase 3/7 flow cytometry; assay type: cell-based; details: 48 h, Annexin-V and caspase 3/7
Protocol: To determine the mode of cell death, A-375 cells were incubated with the Cu complexes and cisplatin for 48 h and, induction of apoptosis was evaluated using both Annexin-V staining and activation of caspase 3/7 in response to drug treatment. While Annexin-V staining relies on the loss of plasma membrane asymmetry, caspases 3 and 7 are critical proteases, which are responsible for the cleavage of many cellular proteins. […] Similar results were obtained in A-549 cells (Supplementary Figure S28).
(§3) 5 × 10^4 number of A-375 and A-549 cells were seeded on 12-well plates, and the next day cells were treated with either copper complexes (calculated IC70 values) or cisplatin (15 μM). Following 48 h of treatment, cells were trypsinized, centrifuged and resuspended in PBS solution supplemented with 1% fetal bovine serum (FBS) (10^6 cells/mL).
Annexin V & Dead Cell Kit (Luminex, MCH100105) protocols were followed for Annexin V activation. Briefly, 1 × 10^5 cells were stained with Annexin V and 7-AAD solution in a 1:1 ratio and incubated at room temperature for 20 min. The apoptotic cell population was evaluated with Muse Cell Analyzer (Merck Millipore).
Caspase-3/7 Kit (Luminex, MCH100108) protocols were followed for Caspase 3/7 staining. 2 × 10^5 cells were stained with 5 μL of Caspase 3/7 antibody (1:8 dilution in PBS) and incubated at room temperature for 30 min. Then, the cells were stained with 100 μL of 7-AAD antibody mixture (1:75 dilution with 1 × Assay Buffer) for 5 min. Caspase 3/7 and 7-AAD positivity were assessed with Muse Cell Analyzer (Merck Millipore).

A-375 cells [2] = assay: Cytotoxicity with ROS scavenger NAC (SRB); assay type: cell-based; details: 10 mM NAC pre-treatment 2 h, co-treatment 72 h
Excerpt: (§4) Additionally, to assess whether the ROS induction contributed to the cytotoxicity triggered by these complexes, we used a ROS scavenger, N-acetyl-cysteine (NAC), in combination with 1, 3, 5 or 8. […] Indeed, it is also possible that the cytotoxicity induced by 5 is not by ROS, despite the induction observed in Figure 7A.
(§5) Figure S27- Protective mechanism of NAC against Cu(II) complexes. Addition of NAC can protect cells from the cytotoxic effects of the Cu(II) complexes A-375 (A) and A-549 (B) cells were pre-treated with 10 mM of ROS scavenger N-acetylcysteine (NAC) for 2 h, then co-treated with freshly prepared Cu(II) complexes (1, 3, 5 and 8) for 72 h. Cell viability was measured via SRB assay (2 biological replicates, each done in duplicate). The error bars represent standard error of the mean. Student t-test was used for statistical analysis, *p<0.05, **p<0.01

A-549 cells [3] = assay: Cytotoxicity with ROS scavenger NAC (SRB); assay type: cell-based; details: 10 mM NAC pre-treatment 2 h, co-treatment 72 h
Excerpt: as §4, §5

A-375 cells [4] = assay: γH2AX staining for DNA double-strand breaks; assay type: cell-based
Protocol: Indeed, we examined whether DNA nicks induced by the complexes on pure plasmid DNA would reflect in cell culture as increased DNA break formation. To test this, A-375 cells were stained using γH2AX, which is a common marker for DSBs (Figure 7B). […] For complex 1 the opposite effect was observed and despite its lower ability to induce ROS formation, the DSB were the highest among the group.
as §3
The Muse ɣH2A.X Activation Dual Detection Kit (Luminex, MCH200101) protocols were followed with minor changes. 1 × 10^5 cells were mixed with ice-cold 1X Fixation Buffer at the same volume for 5 min. Cells were centrifuged (600 g, 5 min), and the pellet was suspended with 100 μL of ice-cold 1X Permeabilization Buffer (10 min, on ice), and centrifuged again. The cell pellet was resuspended with 50 μL of antibody mixture of (20X) Anti-phospho-Histone H2A.X (Ser139), Alexa Fluor 555 and (20X) Anti-H2A.X, PECy5 antibodies. Following 30 min of antibody staining, cells were centrifuged and resuspended with 1X Assay Buffer. DNA breaks were analysed with Muse Cell Analyzer (Merck Millipore).

[5] = Thermodynamic solubility at pH 7.4; assay type: physicochemical; details: Cu(II) complexes; pH 7.40; 20 mM HEPES; 25.0°C
Protocol: Thermodynamic solubility (S) was measured for the new ligands, L^7 and L^8, since data for the rest of the series was previously reported (9), and for selected Cu(II) complexes: 1, 5 and 6. Solubility was measured for the saturated solutions in water at pH 7.40 in 20 mM HEPES at 25.0 ± 0.1 °C. The concentration was determined by UV-Vis spectrophotometry using the stock solutions of the compounds with known concentrations dissolved in 100% DMSO, 50% and 25% (v/v) DMSO/buffered aqueous solutions for the calibration.

[6] = tested on: Klebsiella pneumoniae ATCC 49619; assay: MIC determination; assay type: cell-based; details: K. pneumoniae; 18 h
Protocol: as §1, §2

[7] = tested on: Escherichia coli K-12 AG100; assay: MIC determination; assay type: cell-based; details: E. coli; 18 h
Protocol: as §1, §2

A-549 cells [8] = assay: ROS activation via dihydroethidium staining, flow cytometry; assay type: cell-based
Excerpt: Since reactive oxygen species appeared to be involved in the nicking activity of the complexes (Supplementary Figure S24), we investigated whether there was an increase in ROS formation in cells upon drug treatment. Dihydroethidium (DHE) is a reduced form of ethidium, after oxidation with superoxide (ROS), it is converted into 2-hydroxy ethidium, which is a chemical that emits red fluorescence and intercalates DNA. […] Similar results were obtained using A-549 cells, but with much milder induction of ROS except for 8, which remained high (Supplementary Figure S26).
as §3
Oxidative stress levels were assessed by Muse Oxidative Stress Kit (Luminex, MCH100111) using the same protocol as previously described (21).

A-375 cells [9] = assay: Sulforhodamine B (SRB) cell viability assay; assay type: cell-based; details: 72 h
Protocol: (§6) Copper compounds were tested, along with the free ligands and cisplatin as the positive control, for their cytotoxicity on both melanoma (A-375) and lung adenocarcinoma (A-549) cell lines in the concentration range 0.78–50 μM. Following 72 h of incubation, cell viability was measured via sulforhodamine B (SRB) assay (Supplementary Figure S25).
(§7) A-375 cells (ATCC, CRL-3222) were grown in Dulbecco’s Modified Eagle Medium with high glucose (Gibco #11965118) and A-549 (ATCC, CCL-185) cells were grown in Dulbecco’s Modified Eagle Medium F-12 (Gibco #11320033), supplemented with 10% FBS (Gibco, #10500064) and Penicillin-Streptomycin (10,000 U/mL, Gibco, #15140122). Cells were incubated at 37 °C, 5% CO2 incubator and subcultured every 3 days.
(§8) All the tested complexes were dissolved in DMSO (10 mM stock solution), and aliquots were stored at -20 °C, thawed on the experiment day and used only once. For SRB cell viability assay, A-375 and A-549 cells were seeded on 96-well plates (4×10^3 cells/well) and treated with serial dilutions of indicated compounds (with a concentration range of 0-50 μM, 72 h). Trichloroacetic acid (TCA) was added to wells for fixation at a final concentration of 10%, for 1 h at 4 °C. Each well was washed five times with ddH2O, dried, and incubated with 0.4% (w/v) SRB dye (50 µL/well) for 30 min at room temperature. The wells were washed with 1% acetic acid (v/v) five times, and 150 µL of 10 mM Tris solution was added to dissolve the stain. Colorimetric measurements were taken at λ = 564 nm. Viability percentage was calculated as follows: % Cell Viability = [100 × (sample Abs.-blank) / (non-treated control Abs.-blank)].

A-549 cells [10] = assay: Sulforhodamine B (SRB) cell viability assay; assay type: cell-based; details: 72 h
Protocol: as §6, §7, §8

## [Cu+2].[O-]C(=NN=Cc1ccc2cccc([O-])c2n1)c1ccncc1 [Complex 8, [Cu(L^8)]3]
S. aureus ATCC 25928
  MIC: > 100 µM
S. aureus MRSA 272123
  MIC: > 100 µM
A-375 cells [1]
  induction of apoptosis, in words: most effective drug among the complexes tested
A-375 cells [2]
  effect of NAC on cytotoxicity: significantly reduced
A-549 cells [3]
  effect of NAC on cytotoxicity: significantly reduced
A-375 cells [4]
  DSB induction (γH2AX), in words: highest levels of DSB induction
[5]
  thermodynamic solubility S 7.4: 3.3 ± 0.3 µM
[6]
  MIC: > 100 µM
[7]
  MIC: > 100 µM
A-549 cells [8]
  ROS induction, in words: remained high
A-375 cells [9]
  IC50: 2.8 ± 0.4 µM
A-549 cells [10]
  IC50: 5.1 ± 0.2 µM
